The results in this text go back to patent publication US10174037B2, “Dihydropyrazolopyrimidinone compounds as PDE2 inhibitors” (Merck Sharp & Dohme Corp., priority 2015, dated 2019).

One test addresses Rhesus PDE2A3 (Macaca mulatta, UniProt B3VTJ2). The test is described as follows: PDE2 fluorescence polarization (IMAP FP) assay, rhesus PDE2A3. It is filed as biochemical, rhesus macaque. On the technique in general: In fluorescence polarisation assays a small probe gives low polarisation when free and higher when bound to something large.
In a further test the target is human PDE2A1 (Homo sapiens (Human), UniProt O00408). The test can be described thus: PDE selectivity IMAP FP assay, human PDE2A1. The test is classed as biochemical. Conditions: Human PDE2. The procedure, abridged:
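Compound titrations run against PDE2 in Tris HCl pH 7.2 buffer with MgCl2 and DTT for 60 min at room temperature, using 50 nM FAM-cAMP plus 1000 nM cGMP and enzyme giving 20% conversion.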

The mark [1] stands for this setting: Lab B, read-out: Rhesus PDE2 Ki (nM) Lab B.
[2] abbreviates: Lab B, read-out: Human PDE2 Ki (nM) Lab B.
The mark [3] stands for this setting: Lab A, read-out: Rhesus PDE2 Ki (nM) Lab A.
Where [4] appears, read: Lab A, read-out: Human PDE2 Ki (nM) Lab A.

Read-outs that look alike come from different tables or passages of the source.

Sequence of Rhesus PDE2A3 (B3VTJ2 1-941): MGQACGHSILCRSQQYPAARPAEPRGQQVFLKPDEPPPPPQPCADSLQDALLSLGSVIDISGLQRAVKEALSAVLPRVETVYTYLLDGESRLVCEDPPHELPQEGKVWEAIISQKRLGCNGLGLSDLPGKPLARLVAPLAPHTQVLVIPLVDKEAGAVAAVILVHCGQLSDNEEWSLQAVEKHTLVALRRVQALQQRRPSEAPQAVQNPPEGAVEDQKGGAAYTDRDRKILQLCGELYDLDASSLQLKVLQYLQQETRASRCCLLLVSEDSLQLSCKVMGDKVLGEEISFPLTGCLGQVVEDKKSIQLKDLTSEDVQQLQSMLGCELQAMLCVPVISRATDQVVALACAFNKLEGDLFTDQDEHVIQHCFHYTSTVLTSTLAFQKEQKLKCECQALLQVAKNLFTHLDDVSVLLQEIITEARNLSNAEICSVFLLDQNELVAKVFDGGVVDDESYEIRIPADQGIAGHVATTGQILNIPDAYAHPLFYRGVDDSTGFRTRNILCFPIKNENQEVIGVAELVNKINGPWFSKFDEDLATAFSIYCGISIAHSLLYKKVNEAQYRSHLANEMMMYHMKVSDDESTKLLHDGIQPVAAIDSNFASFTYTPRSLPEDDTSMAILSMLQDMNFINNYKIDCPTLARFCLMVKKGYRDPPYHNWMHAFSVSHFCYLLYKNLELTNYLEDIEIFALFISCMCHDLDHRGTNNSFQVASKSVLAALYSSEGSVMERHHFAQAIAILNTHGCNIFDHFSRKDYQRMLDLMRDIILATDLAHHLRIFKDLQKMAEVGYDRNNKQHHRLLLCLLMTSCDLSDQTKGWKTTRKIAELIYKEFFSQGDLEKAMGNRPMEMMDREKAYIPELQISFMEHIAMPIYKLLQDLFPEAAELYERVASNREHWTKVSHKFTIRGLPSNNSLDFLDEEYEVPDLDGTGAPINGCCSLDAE
Sequence of human PDE2A1 (O00408 other isoform, or with tags, fused parts or gaps): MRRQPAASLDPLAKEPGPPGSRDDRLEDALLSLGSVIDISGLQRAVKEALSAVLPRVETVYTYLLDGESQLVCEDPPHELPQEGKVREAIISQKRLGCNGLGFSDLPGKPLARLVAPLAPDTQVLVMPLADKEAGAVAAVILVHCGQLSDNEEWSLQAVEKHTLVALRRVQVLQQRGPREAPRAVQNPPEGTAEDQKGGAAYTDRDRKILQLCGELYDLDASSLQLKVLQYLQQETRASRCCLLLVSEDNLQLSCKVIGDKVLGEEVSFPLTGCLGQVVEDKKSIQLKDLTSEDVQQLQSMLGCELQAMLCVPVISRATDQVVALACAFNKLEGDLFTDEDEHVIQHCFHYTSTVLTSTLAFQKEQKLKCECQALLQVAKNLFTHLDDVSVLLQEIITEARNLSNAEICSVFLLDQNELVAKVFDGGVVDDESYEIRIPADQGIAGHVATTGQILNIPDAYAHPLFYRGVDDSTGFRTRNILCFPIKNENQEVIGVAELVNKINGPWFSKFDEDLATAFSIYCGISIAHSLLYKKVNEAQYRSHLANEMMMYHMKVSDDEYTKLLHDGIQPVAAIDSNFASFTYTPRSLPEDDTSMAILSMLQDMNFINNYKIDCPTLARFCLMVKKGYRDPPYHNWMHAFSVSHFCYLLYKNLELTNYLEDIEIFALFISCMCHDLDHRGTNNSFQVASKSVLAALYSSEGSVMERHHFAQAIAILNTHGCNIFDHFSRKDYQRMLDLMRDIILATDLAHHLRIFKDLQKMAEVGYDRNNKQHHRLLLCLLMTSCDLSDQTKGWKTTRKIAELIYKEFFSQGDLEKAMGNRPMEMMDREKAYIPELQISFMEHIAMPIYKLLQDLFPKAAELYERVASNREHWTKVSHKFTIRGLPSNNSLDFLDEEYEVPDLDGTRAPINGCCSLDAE

For `CC(C)C(c1ccc(C(C)(F)F)cc1)n1nc(CF)c2c(=O)[nH]c(N(C)C)nc21` (single isomer, unassigned) [Example 207, (S)- or (R)-1-(1-(4-(1,1-Difluoroethyl)phenyl)-2-methylpropyl)-6-(dimethylamino)-3-(fluoromethyl)-1H-pyrazolo[3,4-d]pyrimidin-4(5H)-one], the Ki on Rhesus PDE2A3 (setting [1]) is 0.043 nM; on human PDE2A1 (setting [2]) it was 0.03 nM.

As for `CC(c1ccc(C(C)(F)F)cc1F)n1nc(CF)c2c(=O)[nH]c(N(C)C)nc21` (single isomer, unassigned) [Example 209, (S)- or (R)-1-(1-(4-(1,1-Difluoroethyl)-2-fluorophenyl)ethyl)-6-(dimethylamino)-3-(fluoromethyl)-1H-pyrazolo[3,4-d]pyrimidin-4(5H)-one], the Ki at Rhesus PDE2A3 (setting [1]) was 0.14 nM; at human PDE2A1 (setting [2]), 0.077 nM.

As for `CN(C)c1nc2c(c(CF)nn2C(c2ccc(C(C)(F)F)cc2)C2CC2)c(=O)[nH]1` (single isomer, unassigned) [Example 212, (R)- or (S)-1-(Cyclopropyl(4-(1,1-difluoroethyl)phenyl)methyl)-6-(dimethylamino)-3-(fluoromethyl)-1H-pyrazolo[3,4-d]pyrimidin-4(5H)-one], the values for the Ki at Rhesus PDE2A3 (setting [1]) and on human PDE2A1 (setting [2]) were 0.91 nM and 0.61 nM, respectively.

Regarding `CN(C)c1nc2c(c(CF)nn2C(c2ccc(C(C)(F)F)cc2)C2CC2)c(=O)[nH]1` (single isomer, unassigned) [Example 213, (S)- or (R)-1-(Cyclopropyl(4-(1,1-difluoroethyl)phenyl)methyl)-6-(dimethylamino)-3-(fluoromethyl)-1H-pyrazolo[3,4-d]pyrimidin-4(5H)-one], the results for the Ki at Rhesus PDE2A3 (setting [1]) and at human PDE2A1 (setting [2]) were 0.075 nM and 0.053 nM, respectively.

As for `CCC(c1ccc(C(C)(F)F)cc1F)n1nc(CF)c2c(=O)[nH]c(N(C)C)nc21` (single isomer, unassigned) [Example 214, (R)- or (S)-1-(1-(4-(1,1-Difluoroethyl)-2-fluorophenyl)propyl)-6-(dimethylamino)-3-(fluoromethyl)-1H-pyrazolo[3,4-d]pyrimidin-4(5H)-one], the Ki amounted to 0.05 nM at Rhesus PDE2A3 (setting [1]) and 0.045 nM on human PDE2A1 (setting [2]).

Consider `CCC(c1ccc(C(C)(F)F)c(F)c1)n1nc(CF)c2c(=O)[nH]c(N(C)C)nc21` (single isomer, unassigned) [Example 216, (R)- or (S)-1-(1-(4-(1,1-Difluoroethyl)-3-fluorophenyl)propyl)-6-(dimethylamino)-3-(fluoromethyl)-1H-pyrazolo[3,4-d]pyrimidin-4(5H)-one], for which the values for the Ki on Rhesus PDE2A3 (setting [1]) and at human PDE2A1 (setting [2]) were 1.4 nM and 1.1 nM, respectively.

As to `CCC(c1ccc(C(C)(F)F)c(F)c1)n1nc(CF)c2c(=O)[nH]c(N(C)C)nc21` (single isomer, unassigned) [Example 217, (S)- or (R)-1-(1-(4-(1,1-Difluoroethyl)-3-fluorophenyl)propyl)-6-(dimethylamino)-3-(fluoromethyl)-1H-pyrazolo[3,4-d]pyrimidin-4(5H)-one], the Ki on Rhesus PDE2A3 (setting [1]) worked out at 0.027 nM; on human PDE2A1 (setting [2]), 0.016 nM.

As to `CC(C)C(c1ccc(C(C)(F)F)c(F)c1)n1nc(CF)c2c(=O)[nH]c(N(C)C)nc21` (single isomer, unassigned) [Example 218, (R)- or (S)-1-(1-(4-(1,1-Difluoroethyl)-3-fluorophenyl)-2-methylpropyl)-6-(dimethylamino)-3-(fluoromethyl)-1H-pyrazolo[3,4-d]pyrimidin-4(5H)-one], the results for the Ki on Rhesus PDE2A3 (setting [1]) and at human PDE2A1 (setting [2]) were 0.21 nM and 0.16 nM, respectively.

Consider `CC(C)C(c1ccc(C(C)(F)F)c(F)c1)n1nc(CF)c2c(=O)[nH]c(N(C)C)nc21` (single isomer, unassigned) [Example 219, (S)- or (R)-1-(1-(4-(1,1-Difluoroethyl)-3-fluorophenyl)-2-methylpropyl)-6-(dimethylamino)-3-(fluoromethyl)-1H-pyrazolo[3,4-d]pyrimidin-4(5H)-one], for which the Ki was 0.03 nM on Rhesus PDE2A3 (setting [1]) and 0.022 nM on human PDE2A1 (setting [2]).

In the case of `CC(C)C(c1ccc(C(F)(F)F)c(F)c1)n1nc(CF)c2c(=O)[nH]c(N(C)C)nc21` (single isomer, unassigned) [Example 221, (S)- or (R)-6-Dimethylamino)-1-(1-(3-fluoro-4-trifluoromethyl)phenyl)-2-methylpropyl)-3-(fluoromethyl)-1H-pyrazolo[3,4-d]pyrimidin-4(5H)-one], the Ki amounted to 0.067 nM at Rhesus PDE2A3 (setting [1]) and 0.046 nM at human PDE2A1 (setting [2]).

Regarding `CCC(c1ccc(C(F)(F)F)c(F)c1)n1nc(CF)c2c(=O)[nH]c(N(C)C)nc21` (single isomer, unassigned) [Example 222, (R)- or (S)-6-(Dimethylamino)-1-(1-(3-fluoro-4-(trifluoromethyl)phenyl)propyl)-3-(fluoromethyl)-1H-pyrazolo[3,4-d]pyrimidin-4(5H)-one], the results for the Ki on Rhesus PDE2A3 (setting [1]) and at human PDE2A1 (setting [2]) were 0.063 nM and 0.044 nM, respectively.

For the molecule `CC(c1ccc(C(F)(F)F)c(F)c1)n1nc(CC(F)(F)F)c2c(=O)[nH]c(O)nc21` (single isomer, unassigned) [Example 235, (S)- or (R)-1-(1-(3-Fluoro-4-(triduoromethyl)phenyl)ethyl)-6-hydroxy-3-(2,2,2-trifluoroethyl)-1H-pyrazolo[3,4-d]pyrimidin-4(5H)-one], the Ki was found to be 1.5 nM at Rhesus PDE2A3 (setting [1]) and 1.4 nM on human PDE2A1 (setting [2]).

Consider `CC(c1ccc(C(C)(C)C)cc1)n1nc(CC(F)(F)F)c2c(=O)[nH]c(O)nc21` (single isomer, unassigned) [Example 236, (R)- or (S)-1-(1-(4-tert-Butylphenyl)ethyl)-6-hydroxy-3-(2,2,2-trifluoroethyl)-1H-pyrazolo[3,4-d]pyrimidin-4(5H)-one], for which the Ki amounted to 5 nM at Rhesus PDE2A3 (setting [1]) and 3.4 nM at human PDE2A1 (setting [2]).

In the case of `O=c1[nH]c(O)nc2c1c(CC(F)(F)F)nn2C(c1ccc(C(F)(F)F)c(F)c1)C1CC1` (single isomer, unassigned) [Example 238, (R)- or (S)-1-(Cyclopropyl(3-fluoro-4-(trifluoromethyl)phenyl)methyl)-6-hydroxy-3-(2,2,2-trifluoroethyl)-1H-pyrazolo[3,4-d]pyrimidin-4(5H)-one], the Ki on Rhesus PDE2A3 (setting [1]) is 7.1 nM; at human PDE2A1 (setting [2]), 5.8 nM.

As to `CC(C)C(c1ccc(C(F)(F)F)cc1)n1nc(CC(F)(F)F)c2c(=O)[nH]c(O)nc21` (single isomer, unassigned) [Example 240, (R)- or (S)-6-Hxdroxy-1-(2-methyl-1-(4-(trifluoromethyl)phenyl)propyl)-3-(2,2,2-trifluoroethyl)-1H-pyrazolo[3,4-d]pyrimidin-4(5H)-one], the Ki was determined as 11 nM on Rhesus PDE2A3 (setting [1]) and 8 nM on human PDE2A1 (setting [2]).

Regarding `CC1(C(c2ccc(C(F)(F)F)cc2)n2nc(CC(F)(F)F)c3c(=O)[nH]c(O)nc32)CC1` (single isomer, unassigned) [Example 244, (R)- or (S)-6-Hydroxy-1-((1-methylcyclopropyl)(4-(trifluoromethyl)phenyl)methyl)-3-(2,2,2-trifluoroethyl)-1H-pyrazolo[3,4-d]pyrimidin-4(5H)-one], the Ki at Rhesus PDE2A3 (setting [1]) and on human PDE2A1 (setting [2]) was 21 nM in each case.

Take `CC(C)(C)c1ccc(C(C2CC2)n2nc(CC(F)(F)F)c3c(=O)[nH]c(O)nc32)cc1` (single isomer, unassigned) [Example 250, (R)- or (S)-1-((4-tert-Butylphenyl)(cyclopropyl)methyl)-6-hydroxy-3-(2,2,2-trifluoroethyl)-1H-pyrazolo(3,4-d]pyrimidin-4(5H)-one]: the Ki on Rhesus PDE2A3 (setting [1]) stood at 26 nM; on human PDE2A1 (setting [2]), 27 nM.

Consider `O=c1[nH]c(O)nc2c1c(CC(F)(F)F)nn2C(c1ccc(OC(F)(F)F)c(F)c1)C1CC1` (single isomer, unassigned) [Example 252, (R)- or (S)-1-(Cyclopropyl(3-fluoro-4-(trifluoromethoxy)phenyl)methyl)-6-hydroxy-3-(2,2,2-trifluoroethyl)-1H-pyrazolo[3,4-d]pyrimidin-4(5H)-one], for which the Ki is 68 nM on Rhesus PDE2A3 (setting [1]) and 73 nM on human PDE2A1 (setting [2]).

For `CC(c1ccc(C(F)(F)F)cc1)n1nc(C(F)(F)F)c2c(=O)[nH]c(O)nc21` (single isomer, unassigned) [Example 254, (R)- or (S)-6-Hydroxy-3-(trifluoromethyl)-1-(1-(4-(trifluoromethyl)phenyl)ethyl)-1H-pyrazolo[3,4-d]pyrimidin-4(5H)-one], the Ki was 102 nM on Rhesus PDE2A3 (setting [1]) and 121 nM at human PDE2A1 (setting [2]).

As to `CC(c1ccc(C(F)(F)F)cc1)n1nc(C(F)(F)F)c2c(=O)[nH]c(O)nc21` (single isomer, unassigned) [Example 255, (S)- or (R)-6-Hydroxy-3-(trifluoromethyl)-1-(1-(4-(trifluoromethyl)phenyl)ethyl)-1H-pyrazolo[3,4-d]pyrimidin-4(5H)-one], the Ki was 3.7 nM on Rhesus PDE2A3 (setting [1]) and 2.4 nM at human PDE2A1 (setting [2]).

`CC(c1ccc(C(F)(F)F)cc1)n1nc(CC(F)(F)F)c2c(=O)[nH]c(O)nc21` (single isomer, unassigned) [Example 256, (R)- or (S)-6-Hydroxy-3-(2,2,2-trifluoroethyl)-1-{1-[4-(trifluoromethyl)phenyl]ethyl}-1,5-dihydro-4H-pyrazolo[3,4-d]pyrimidin-4-one]: the Ki on Rhesus PDE2A3 (setting [3]) came to 166 nM; on human PDE2A1 (setting [4]), 126 nM.

In the case of `CC(c1ccc(C(F)(F)F)cc1)n1nc(CC(F)(F)F)c2c(=O)[nH]c(O)nc21` (single isomer, unassigned) [Example 257, (S)- or (R)-6-Hydroxy-3-(2,2,2-trifluoroethyl)-1-{1-(4-(trifluoromethyl)phenyl]ethyl}-1,5-dihydro-4H-pyrazolo[3,4-d]pyrimidin-4-one], the Ki at Rhesus PDE2A3 (setting [3]) is 0.96 nM; at Rhesus PDE2A3 (setting [1]), 1.5 nM; on human PDE2A1 (setting [4]), 0.68 nM; at human PDE2A1 (setting [2]), 2 nM.

In the case of `CC(C)C(c1ccc(C(F)(F)F)c(F)c1)n1nc(CC(F)(F)F)c2c(=O)[nH]c(O)nc21` (single isomer, unassigned) [Example 258], the Ki at Rhesus PDE2A3 (setting [1]) is 10 nM; at human PDE2A1 (setting [2]), 9.7 nM.

What is called Ki is the dissociation constant of the complex between target and ligand, obtained from inhibition or displacement.
